In patent publication US10376502B2, “Alkylated imino sugars exhibiting glucosidase inhibition and their method of use” (Baruch S. Blumberg Institute, priority 2012, dated 2019):

Tested on: BVDV
Test: BVDV single cycle virus yield reduction assay with plaque titration
Format: cell-based, BVDV (NADL strain)
Conditions: Bovine viral diarrhea virus isolates and strains; MDBK cells, MOI 0.5, 22 hours post infection; compound 0.16 μM to 100 μM
Protocol: Cells and viruses: BVDV free MDBK cells (CCL 22) were obtained from the American Type Culture Collection and propagated in DMEMIF12 essential medium supplemented with penicillin (500 U/ml), streptomycin (500 U/ml), and 10% heat inactivated horse serum (Invitrogen). Cells were maintained in a humidified incubator at 37° C. with 5% C02. BVDV (NADL strain). For infections, virus inoculum was added in complete medium and adsorbed for 1 hour at 37‘C’, the inoculum was then removed, the cells washed once with medium and fresh medium containing compounds added. Virus stocks were prepared by freeze thawing the infected cells and culture supernatant three times followed by centrifugation at 1,000 g for 5 min., Stock titers were determined, and stocks were aliquoted and stored at −80° C. WNV was obtained from a eDNA clone of a human 2002 isolate from Texas; virus obtained from BHK cells electroporated with the in vitro synthesized RNA from this eDNA clone was passaged in Vero cells before use in antiviral assays. Dengue virus (DV) serotype 2 was a New Guinea C virus that had been passaged 28 times in suckling mouse brain, twice in Vero cells, and once in C6/36 mosquito cells.
BVDV antiviral and plaque assays: To evaluate antiviral activity against BVDV, a single cycle virus yield reduction assay was performed in the presence of from 0.16 μM to 100 μM through 5-fold dilution. Specifically, 2×10^5 MDBK cells/well were plated in 24 well plates. Twenty four hours later, the cells were infected with BVDV at multiplicity of infection (MOI) of 0.5 PFU/cell in 100 uL complete media. After adsorption for 1 hour at 37° C., the inoculum was removed, and cells were washed with media before media containing vehicle or from 0.16 μM to 100 μM through 5-fold dilution of test compound was added. At 22 hours post infection, both cells and media were collected and freeze-thawed three times before the virus was tittered. For BVDV virus, titer determination, 10^−2, 10^−3, 10^−4 dilutions of virus were inoculated onto MDBK cells as described previously. After absorption and washing the cells were overlaid with medium containing methylcellulose or soft agar and incubated at 37° C. for 3 days or until plaques were visible. Plaques were counted directly under the microscope or after staining with crystal violet in 70% methanol for 15 minutes.

SMILES	EC50 [µM]	EC90 [µM]
CC1CCCCC1N(CCCCCCN1C[C@H](O)[C@@H](O)[C@H](O)[C@H]1CO)C(=O)OC(C)(C)C (some centres unmarked) [Entry 1]	0.4	3.5
CC1CCCCC1NCCCCCCN1C[C@H](O)[C@@H](O)[C@H](O)[C@H]1CO (some centres unmarked) [Entry 2]	100	–
CC(C)(C)C(=O)N(CCCCCCN1C[C@H](O)[C@@H](O)[C@H](O)[C@H]1CO)C1CCCCC1 [Entry 3]	0.2	13
CC(=O)N(CCCCCCN1C[C@H](O)[C@@H](O)[C@H](O)[C@H]1CO)c1cc(F)ccc1F [Entry 4]	5	–
CC(=O)N(CCCCCCN1C[C@H](O)[C@@H](O)[C@H](O)[C@H]1CO)c1ccc(F)cc1F [Entry 5]	6	67
CC(C)(C)C(=O)N(CCCCCCN1C[C@H](O)[C@@H](O)[C@H](O)[C@H]1CO)c1cc(F)ccc1F [Entry 6]	0.4	18
CC(C)(C)C(=O)N(CCCCCCN1C[C@H](O)[C@@H](O)[C@H](O)[C@H]1CO)c1ccc(F)cc1F [Entry 7]	0.25	45
CC(C)C(=O)N(CCCCCCN1C[C@H](O)[C@@H](O)[C@H](O)[C@H]1CO)C1CCCCC1 [Entry 8]	0.45	25
CC(C)(C)CC(=O)N(CCCCCCN1C[C@H](O)[C@@H](O)[C@H](O)[C@H]1CO)C1CCCCC1 [Entry 9]	0.18	4
CC(C)(C)C(=O)N(CCCCCCN1C[C@H](O)[C@@H](O)[C@H](O)[C@H]1CO)C1CC1 [Entry 10]	3.75	–
CC(C)(C)C(=O)N(CCCCCCN1C[C@H](O)[C@@H](O)[C@H](O)[C@H]1CO)C1CCC1 [Entry 11]	0.8	–
CC(C)(C)C(=O)N(CCCCCCN1C[C@H](O)[C@@H](O)[C@H](O)[C@H]1CO)C1CCCC1 [Entry 12]	0.85	32
CC(C)(C)C(=O)N(CCCCCCN1C[C@H](O)[C@@H](O)[C@H](O)[C@H]1CO)C1CCCCCC1 [Entry 13]	0.4	9
CC(C)(C)C(=O)N(CCCCCCN1[C@H](CO)[C@@H](O)[C@H](O)[C@H]1CO)C1CCCCC1 [Entry 14]	21	–
CC(C)(C)C(=O)Nc1cccc(CCCN2C[C@H](O)[C@@H](O)[C@H](O)[C@H]2CO)c1 [Entry 15]	2.4	–
CC(C)(C)C(=O)Nc1ccc(CCCN2C[C@H](O)[C@@H](O)[C@H](O)[C@H]2CO)cc1 [Entry 16]	> 100	–
CC(C)(C)S(=O)(=O)N(CCCCCCN1C[C@H](O)[C@@H](O)[C@H](O)[C@H]1CO)C1CCCCC1 [Entry 17]	0.31	50
O=S(=O)(c1ccccc1)N(CCCCCCN1C[C@H](O)[C@@H](O)[C@H](O)[C@H]1CO)C1CCCCC1 [Entry 18]	0.5	18
CC(C)(C)N[S+]([O-])N(CCCCCCN1C[C@H](O)[C@@H](O)[C@H](O)[C@H]1CO)C1CCCCC1 (some centres unmarked) [Entry 19]	0.3	25
O=C(c1ccccc1)N(CCCCCCN1C[C@H](O)[C@@H](O)[C@H](O)[C@H]1CO)C1CCCCC1 [Entry 20]	0.32	11

Tested on: their target viruses
Test: not given
Conditions: against their target viruses; cited from earlier work

SMILES	concentrations to achieve EC50 values in tissue culture
CCCC(=O)O[C@H]1CN2CC[C@H](O)[C@@H]2[C@@H](O)[C@@H]1O [Cellgosovir]	near millimolar
CCCCN1C[C@H](O)[C@@H](O)[C@H](O)[C@H]1CO [NBDNJ, N-butyl-DNJ]	near millimolar
